Laboratory results taken from paper PMC4763988, “Activating peptides for cellular uptake via polymerization into high density brushes” (Chemical Science, 2015).
NorAha = not defined here

Key:
[1] = system: HeLa cells; assay: Propidium iodide cell staining assay for necrotic cells; format: cell-based; details: flow cytometry PI channel; for Propidium iodide staining, shift of cell population (in words): KLA m ~ 10 5 hr, staurosporine 1 µM 24 hrs
Protocol: Apoptosis and necrosis assays. Apoptotic and necrotic cells were identified using the CFTM488A Annexin V
stains necrotic cells. For these studies, HeLa cells were plated at a density of 420,000 cells per well of a 6-well
plate 18 hrs prior to treatment. KLA, m ~ 10, was dissolved in DPBS to a concentration of 2000 µM, where
concentration is with respect to peptide and no fluorophore is present. Staurosporin, a small molecule that is
known to cause apoptosis, was dissolved at 1000× (desired concentration on cells is 1 µM) in DMSO.
Staurosporin and the vehicle control were added to the wells 24 hrs prior to analysis, and KLA (m ~ 10) and 10%
DMSO control were added 5 hr prior to analysis. After incubation, materials were removed and the cells were
washed 2× with DPBS followed by 3 × 5 minute incubations with heparin (0.5 mg/mL in DPBS), and finally rinsed
and the cells were transferred to Eppendorf tubes. The suspended cells were centrifuged to pellets and then
resuspended in 100 µL Annexin V binding buffer. Then 5 µL of Annexin V was added to each Eppendorf, followed
by 1 µL of PI. The cells were then incubated in a 37 ° C water bath for 15 minutes in the dark. After incubation,
flow cytometry data was acquired monitoring the FITC channel (for Annexin V staining) and the PI channel.

[2] = system: cells; details: cited from earlier work
[3] = Aggregation in DPBS by dynamic light scattering; format: physicochemical; details: for diameter by DLS: dissolved in DPBS, 10 x the concentration used in uptake studies, correlates to unimers
Description: (§1) and dried. In preparation for in vitro cell studies, all polymers were washed (3×) with cold ether (to remove the Ru catalyst) and then dissolved in DPBS and dialyzed in dialysis cups with a molecular weight cut-off value of 3500 (Thermo Scientific, cat. # 69552) in an effort to remove any residual monomer or catalyst.
(§2) We also sought to determine whether our block copolymers (i.e., GSGSGRR60-b-OEG20 and derivatives) formed larger aggregate structures in aqueous solution. To this end, we characterized three polymers GSGSGRR m ~ 60, GSGSGKK m ~ 60 and GSGSG m ~ 60 dissolved in DPBS by standard dynamic light scattering (DLS) and […] electron microscopy (TEM) analyses, which we perform routinely in other work to characterize nano-and micron-scale polymer assemblies. […]
quench here with IV. deprotection
(§3) Figure S5. Polymerization scheme for the preparation of GSGSG peptide polymers and analogues. Peptide polymers for this series are prepared via ROMP as block copolymers with an accessory OEG block to ensure aqueous solubility of all GSGSG analogues. Each peptide block is polymerized to m ~ 8, 15, 30, and 60. The OEG block is kept constant at a DP of ~ 20. The living polymer can be terminated with ethyl vinyl ether after completion of the peptide block to gain accurate molecular weights (Mn), dispersity (Mw/Mn) and degree of polymerization (DP). […]

[4] = Aggregation in DPBS by TEM; format: physicochemical; details: dissolved in DPBS, 10 x the concentration used in uptake studies
Description: as §1, §2, §3

[5] = system: HeLa cells
[6] = system: HeLa cells; remark: listed apart in the source
[7] = target: trypsin (Sus scrofa, UniProt P00761); details: 50 µM with respect to peptide, protease 1 µM (Fig. S25 for KLA: 10 µM), 3 hrs in DPBS, heat denatured 65 °C 15 m, RP-HPLC with standard curve
Sequence of trypsin (P00761 9-231): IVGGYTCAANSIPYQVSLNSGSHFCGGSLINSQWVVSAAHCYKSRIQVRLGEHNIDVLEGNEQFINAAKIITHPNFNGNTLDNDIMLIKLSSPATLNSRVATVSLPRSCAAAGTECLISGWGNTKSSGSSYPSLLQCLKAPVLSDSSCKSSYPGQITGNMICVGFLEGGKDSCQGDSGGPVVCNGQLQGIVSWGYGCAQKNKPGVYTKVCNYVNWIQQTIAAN

[8] = system: pronase (protease cocktail); details: 50 µM with respect to peptide, protease 1 µM (Fig. S25 for KLA: 10 µM), 3 hrs in DPBS, heat denatured 65 °C 15 m, RP-HPLC with standard curve
[9] = system: HeLa cells; format: cell-based
Protocol: Figures S10. Influence of the degree of polymerization or “m” on cellular uptake as quantified by flow cytometry. All data are […] with respect to the fluorophore. 20 15 10 Conc.&(μM)& […] 5 […] 0 […] Figures S11. Concentration dependence of cellular uptake as quantified by flow cytometry. All data are referenced to vehicle […] Concentration of all materials is with respect to the fluorophore. SVI. Live-cell confocal microscopy. HeLa cells were plated on glass-bottom 24-well plates at a cell density of 90,000 cells per well 18 hrs prior to treatment with the compound of interest. The medium was removed and then replaced with medium lacking phenol red (Gibco Life Tech., cat# 31053-028) to minimize background fluorescence. […] respect to fluorophore) were added to the wells and the plates were incubated for 30 min at 37 °C. The medium was then removed and the cells were rinsed 2× with DPBS, and then fresh medium (phenol red- free) was added to each well. Live cells were imaged on an Olympus FV1000 confocal microscope with a chamber at 37 ° C under 5% CO2 via a Z-stack analysis (set to 1 μm slices) using identical instrument settings for each image and a 40× or 100x objective. S14 (also on this page, place not known: 31053 -028) […] Normalized Mean Fluorescence […]

[10] = system: mitochondrial membrane potential in HeLa cells; assay: JC-1 mitochondrial integrity (membrane potential) assay; format: cell-based; details: JC-1 assay, relative to vehicle (DPBS)-treated cells

**Q.** Which “Propidium iodide staining, increase in necrotic cells” value ([1]; 10% DMSO added 5 hr prior to analysis) does the source give for `C[S+](C)[O-]` [DMSO] here?
**A.** ~40 fold increase

**Q.** For `CN[C@@H]1C[C@H]2O[C@@](C)([C@@H]1OC)n1c3ccccc3c3c4c(c5c6ccccc6n2c5c31)C(=O)NC4` [Staurosporine], which “Propidium iodide staining, shift of cell population (in words)” value [1] is on record?
**A.** no shift

**Q.** With GSGSG as the compound, how does the “Cell penetration of GSGSG (in words)” value [2] read?
**A.** does not penetrate cells

**Q.** Which “diameter by DLS” value [3] does the source give for GSGSG56-b-OEG28 [GSGSG polymer] here?
**A.** < 6 nm

**Q.** And the “TEM images compared with buffer (DPBS) alone” value [4]?
**A.** indistinguishable

**Q.** Which “Aggregation of deprotected polymer in DPBS by dynamic light scattering (in words)” value ([3]; DPBS, deprotected polymer) does the source give for “GSGSGK53-b-OEG20 [GSGSGK Polymer (m ~ 60)]” here?
**A.** did not aggregate in DPBS

**Q.** With K(Flu)KLAKLAKKLAKLAK-NH2 [KLA peptide] as the compound, how does the “Cellular uptake: fluorescence signal of treated HeLa cells by flow cytometry (in words)” value [5] read?
**A.** indistinguishable from that of the vehicle control

**Q.** What about the “Cytotoxicity (in words)” value [6] of the same compound?
**A.** no cytotoxicity was detected

**Q.** And the “Proteolytic degradation by trypsin (RP-HPLC before and after, in words)” value [7]?
**A.** completely degraded into fragments

**Q.** And the “Proteolytic degradation by pronase (RP-HPLC before and after, in words)” value [8]?
**A.** completely degraded into fragments

**Q.** What about the “Cell penetration of KLA (in words)” value ([2]; sub-millimolar concentrations) of the same compound?
**A.** does not penetrate cells at sub-millimolar concentrations

**Q.** Which “diameter by DLS” value [3] does the source give for NorAhaGSGSGKK-NH2 [GSGSGKK polymer] here?
**A.** < 6 nm

**Q.** What about the “TEM images compared with buffer (DPBS) alone” value [4] of the same compound?
**A.** indistinguishable

**Q.** What about the “Internalization and localization by live-cell confocal microscopy (in words)” value [9] of the same compound?
**A.** diffuse and punctate fluorescence

**Q.** What does the source list for “NorAhaKLAKLAK-NH2 (NorAha-KLAKLAK-NH2; reading uncertain; also: polymerized by ROMP, about 10 repeats on polymer backbone) [KLAfragment]”?
**A.** Mitochondrial integrity of treated cells (in words) [10]: unaffected; Internalization and localization by live-cell confocal microscopy (in words) [9]: mixture of diffuse and punctate fluorescence; Cytotoxicity (in words) [6]: negligible toxicity

**Q.** For “NorAhaKLAKLAKKLAKLAK-NH2 [KLA polymer (m ∼ 5)]”, which LD50 [6] is on record?
**A.** 12.5 µM

**Q.** What does the source list for “NorAhaKLAKLAKKLAKLAK-NH2 [KLA polymer (m ∼ 10)]”?
**A.** Propidium iodide staining, shift of cell population (in words) [1]: no shift; Internalization and localization by live-cell confocal microscopy (in words) [9]: diffuse and punctate fluorescence; LD50 [6]: 25 µM

**Q.** For “NorAhaKLAKLAKKLAKLAK-NH2 [KLA polymer (m ∼ 15)]”, which LD50 [6] is on record?
**A.** 30 µM
